# Measurements published in patent publication US12358892B2, “Metalloenzyme inhibitors for treating cancers, Alzheimer's disease, hemochromatosis, and other disorders” (Miralogx LLC, priority 2020, dated 2025).
# “Also recorded” adds a separate entry of the source.
# Assays:
# [1] = tested on: 12 human primary cell-based systems; experiment: BioMAP Diversity PLUS panel, protein biomarker readouts and cytotoxicity
# Source text: This example describes testing the compound prepared in Example 1 in the BioMAP Diversity PLUS (Eurofins Discovery, Burlingame, California) panel of 12 human primary cell-based systems designed to model different aspects of the human body in an in vitro format. The 12 systems in the Diversity PLUS panel allow test agent characterization in an unbiased way across a broad set of systems modeling various human disease states. BioMAP systems are constructed with one or more primary cell types from healthy human donors, with stimuli (such as cytokines or growth factors) added to capture relevant signaling networks that naturally occur in human tissue or pathological conditions. Vascular biology is modeled in both a Th1 (3C system) and a Th2 (4H system) inflammatory environment, as well as in a Th1 inflammatory state specific to arterial smooth muscle cells (CASM3C system). Additional systems recapitulate aspects of the systemic immune response including monocyte-driven Th1 inflammation (LPS system) or T cell stimulation (SAg system), chronic Th1 inflammation driven by macrophage activation (lMphg system) and the T cell-dependent activation of B cells that occurs in germinal centers (BT system). The BE3C system (Th1) and the BF4T system (Th2) represent airway inflammation of the lung, while the MyoF system models myofibroblast-lung tissue remodeling. Lastly, skin biology is addressed in the KF3CT system modeling Th1 cutaneous inflammation and the HDF3CGF system modeling wound healing.
# The X-axis lists the quantitative protein-based biomarker readouts measured in each system. The Y-axis represents a log-transformed ratio of the biomarker readouts for the drug-treated sample (n=1) over vehicle controls (n≥6). The grey region around the Y-axis represents the 95% significance envelope generated from historical vehicle controls. Biomarker activities are annotated when two or more consecutive concentrations change in the same direction relative to vehicle controls, are outside of the significance envelope, and have at least one concentration with an effect size >20% (|log 10 ratio|>0.1). Biomarker key activities are described as modulated if these activities increase in some systems, but decrease in others. Cytotoxicity is indicated on the profile plot by a thin black arrow above the X-axis, and antiproliferative effects are indicated by a thick grey arrow. Cytotoxicity and antiproliferative arrows only require one concentration to meet the indicated threshold for profile annotation. As summarized in Table 2 below, the compound was active with 35 annotated readouts. Specifically, the compound impacted inflammation-related activities (decreased Eotaxin 3, VCAM-1, MCP-1, SAA, sTNFα, MIP-1α; increased IL-1α, IL-6; modulated IL-8), immunomodulatory activities (decreased CD40, sIL-1β, sIgG, M-CSF, sIL-17A, sIL-6, sIL-17F, sIL-2), tissue remodeling activities (decreased PAI-1, uPAR, αSMA, Keratin 8/18; increased collagen I, MMP-1), and hemostasis-related activities (increased TF).
# BioMAP® panels consist of human primary cell-based systems designed to model different aspects of the human body in an in vitro format. BioMAP® systems are constructed with one or more primary cell types from healthy human donors, with stimuli (such as cytokines or growth factors) added to capture relevant signaling networks that naturally occur in human tissue or pathological conditions. Vascular biology is modeled in both a Th1 (3C system) and a Th2 (4H system) inflammatory environment, as well as in a Th1 inflammatory state specific to arterial smooth muscle cells (CASM3C system). Additional systems recapitulate aspects of the systemic immune response including monocyte-driven Th1 inflammation (LPS system) or T cell stimulation (SAg system), chronic Th1 inflammation driven by macrophage activation (Mphg system) and the T cell-dependent activation of B cells that occurs in germinal centers (BT system). […]
# [2] = tested on: human primary endothelial cells; experiment: BioMAP proliferation readout, endothelial cells; assay type: cell-based; conditions: 670 μM, 220 μM, 74 μM; concentrations not associated with cytotoxicity
# Source text: (§1) The X-axis lists the quantitative protein-based biomarker readouts measured in each system. The Y-axis represents a log-transformed ratio of the biomarker readouts for the drug-treated sample (n=1) over vehicle controls (n≥6). The grey region around the Y-axis represents the 95% significance envelope generated from historical vehicle controls. Biomarker activities are annotated when two or more consecutive concentrations change in the same direction relative to vehicle controls, are outside of the significance envelope, and have at least one concentration with an effect size >20% (|log 10 ratio|>0.1). Biomarker key activities are described as modulated if these activities increase in some systems, but decrease in others. […] As summarized in Table 2 below, the compound was active with 35 annotated readouts. […]
# (§2) Human primary cells in BioMAP® systems are used at early passage (passage 4 or earlier) to minimize adaptation to cell culture conditions and preserve physiological signaling responses. […] Test agents prepared in either DMSO (small molecules; final concentration ≤0.1%) or PBS (biologics) are added at the indicated concentrations 1-hr before stimulation, and remain in culture for 24-hrs or as otherwise indicated (48-hrs, MyoF system; 72-hrs, BT system (soluble readouts); 168-hrs, BT system (secreted IgG)). […]
# T cells = experiment: BioMAP proliferation readout, T cells; assay type: cell-based, human; conditions: 670 μM, 220 μM; concentrations not associated with cytotoxicity
# Source text: as §1, §2
# B cells = experiment: BioMAP proliferation readout, B cells; assay type: cell-based, human; conditions: 670 μM, 220 μM, 74 μM; concentrations not associated with cytotoxicity
# Source text: as §1, §2
# [3] = tested on: coronary artery smooth muscle cells; experiment: BioMAP proliferation readout, coronary artery smooth muscle cells; assay type: cell-based, human; conditions: 670 μM, 220 μM, 74 μM; concentrations not associated with cytotoxicity
# Source text: as §1, §2
# fibroblasts = experiment: BioMAP proliferation readout, fibroblasts; assay type: cell-based, human; conditions: 670 μM; concentrations not associated with cytotoxicity
# Source text: as §1, §2
# [4] = Inflammation-related activities
# [5] = lower three concentrations tested, immunomodulatory
# [6] = lower three concentrations tested, inflammation-related
# [7] = lower three concentrations tested, tissue remodeling
structure (smiles),measurement,setting,value
c1ncc(C2=NCCC2)cc1C1=NCCC1 [Example 1],annotated readouts,[1]; Diversity PLUS Panel profile,35
same,Decreased Activity: M-CSF,[1]; Immunomodulatory activities,decreased; also recorded: M-CSF
same,Decreased Activity: sIL-6,[1]; Immunomodulatory activities,decreased; also recorded: inhibited; also recorded: sIL-6
same,Decreased Activity: sIL-10 (Table 2) / sIL-1β,[1]; Immunomodulatory activities,decreased
same,Decreased Activity: sIL-17F,[1]; Immunomodulatory activities,decreased; also recorded: SIL-17F
same,Decreased Activity: sIgG,[1]; Immunomodulatory activities,decreased and sigG
same,Decreased activity: CD40,[1]; Immunomodulatory activities,decreased and CD40
same,Decreased activity: sIL-2,[1]; Immunomodulatory activities,decreased
same,Decreased activity: sIL-17A,[1]; Immunomodulatory activities,decreased; also recorded: SIL-17A
same,Decreased Activity: Eotaxin 3,[1]; [4],decreased and Eot3
same,Decreased Activity: MIP-1α,[1]; [4],decreased
same,Decreased Activity: SAA,[1]; [4],decreased and SAA
same,Decreased Activity: sTNFα,[1]; [4],decreased; also recorded: inhibited; also recorded: sTNFα
same,Decreased activity: MCP-1,[1]; [4],decreased; also recorded: MCP-1
same,Decreased activity: VCAM-1,[1]; [4],decreased; also recorded: VCAM-1
same,Increased Activity: IL-1α,[1]; [4],increased and IL1a
same,Increased Activity: IL-6,[1]; [4],increased and IL6
same,Modulated Activity: IL-8,[1]; [4],modulated and IL8
same,Decreased Activity: Keratin 8/18,[1]; Tissue remodeling activities,decreased; also recorded: Ker8-18
same,Decreased Activity: PAI-1,[1]; Tissue remodeling activities,decreased; also recorded: PAI-1
same,Decreased Activity: uPAR,[1]; Tissue remodeling activities,decreased and uPAR
same,Decreased Activity: αSMA,[1]; Tissue remodeling activities,decreased and aSMA
same,Increased Activity: MMP-1,[1]; Tissue remodeling activities,"increased; also recorded: MMP1,"
same,Increased Activity: collagen I,[1]; Tissue remodeling activities,increased; also recorded: Col-1
same,annotated readouts,[1]; lower three concentrations tested,23
same,TF,"[1]; lower three concentrations tested, hemostasis-related",increased
same,sIL-1β,[1]; [5],decreased
same,sIL-2,[1]; [5],decreased
same,sIL-6,[1]; [5],decreased
same,sIL-17A,[1]; [5],decreased
same,sIL-17F,[1]; [5],decreased
same,sIgG,[1]; [5],decreased
same,Eotaxin 3,[1]; [6],decreased
same,IL-1α,[1]; [6],increased
same,IL-6,[1]; [6],increased
same,IL-8,[1]; [6],increased
same,MCP-1,[1]; [6],decreased
same,SAA,[1]; [6],decreased
same,VCAM-1,[1]; [6],decreased
same,sTNFα,[1]; [6],decreased
same,MMP-1,[1]; [7],increased
same,PAI-1,[1]; [7],decreased
same,collagen I,[1]; [7],increased
same,antiproliferative effect on human primary endothelial cells,[2],antiproliferative
same,antiproliferative effect on T cells,T cells,antiproliferative
same,antiproliferative effect on B cells,B cells,antiproliferative
same,antiproliferative effect on coronary artery smooth muscle cells,[3],antiproliferative
same,antiproliferative effect on fibroblasts,fibroblasts,antiproliferative
